The experiment relates to enteroendocrine L-cells. Kind of experiment: Secretion of satiety inducing peptides (CCK-8, GLP-1) by enteroendocrine L-cells, radio immuno assay. It counts as cell-based. Conditions: L-cells incubated 2 h at 37° C in KRB buffer; compared with equal amounts of palmitic acid. As to the method:
To estimate the effects of ximenynic acid on satiety we measure the excretion of satiety inducing peptides (CCK-8 and GLP-1 L) by enteroendocrine L-cells. Two days prior to experiment 1*10^6 are cultured in 12-well culture plates. On the day of the experiment supernatants are replaced by Krebs-Ringer bicarbonate (KRB) buffer containing either control or test substances. Prior to the addition the solutions are adjusted to pH 7.2. Cells are incubated for 2 h at 37° C. Following incubation, supernatants are collected and measured by radio immuno assay for the amount of CCK-8 or GLP-1 which has been secreted.

On to `CCCCCC/C=C/C#CCCCCCCCC(=O)O` [ximenynic acid, octadeca-trans-11-en-9-ynoic acid], for which the “release of CCK-8” value is recorded as “significantly greater release” and the “release of GLP-1” value is “significantly greater release”.

Values taken from patent US20040115331A1, “Ximenynic acid compositions, methods for their production and uses thereof” (priority 2002, published 2004).
